This is an account of results in US9931308B2, “Compositions and methods using P-anisaldehyde” (NESTEC S.A., priority 2013, dated 2018).

SMILES strings stand for the structures. Like-named read-outs stand apart in the source and are kept apart here.

Test [1] deals with mice. Kind of test: insulin sensitivity in mice with chronic ingestion, high fat diet (FIG. 4). Format: in vivo. Particulars: mice chronically fed high fat diet containing 0.2 wt % compound vs same diet without.
The subject of test [2] is mice. Kind of test: short term food intake after a single ingestion in mice (FIG. 5). Format: in vivo. Particulars: single dose vs sham gavage.
For test [3], the system named is mice. Kind of test: body weight gain in mice with chronic ingestion, high fat diet (FIG. 3). In kind it is in vivo. The settings on record: mice chronically fed high fat diet containing 0.2 wt % compound vs same diet without.
For test [4], the system named is mice. Kind of test: gastric emptying after a single ingestion in mice (FIG. 6). In kind it is in vivo. The settings on record: single dose vs sham gavage.
Test [5] has as its target T1, TRPA1 (Homo sapiens, UniProt O75762). Particulars: known TRPA1 agonist; read-out: EC50 TRPA1 activation; cited from earlier work.
A further test concerns the target T2, TRPV1 (Homo sapiens, UniProt Q8NER1).
T2 construct: expressed in transfected cells; an “empty” cell control implies recombinant expression
Kind of test: in vitro activation of TRPV1 in cells expressing TRP channels (FIG. 7). In kind it is cell-based. Particulars: FIG. 7, squares; read-out: EC 50 TRPV1 activation.

In test [6] the target is T1, TRPA1. Kind of test: in vitro activation of TRPA1 in cells expressing TRP channels (FIG. 7). The settings on record: FIG. 7, circles; read-out: EC-50 TRPA1 activation. Format: cell-based.
For a further test, the system named is "empty" cells. Kind of test: in vitro activation on "empty" cells, control (FIG. 7). In kind it is cell-based. Particulars: FIG. 7, downward pointing triangles.
A further test concerns the target TRPM8 (Homo sapiens, UniProt Q7Z2W7). Kind of test: in vitro activation of hTRPM8 in cells expressing TRP channels (FIG. 7). In kind it is cell-based. Further details: expressed in transfected cells; an “empty” cell control implies recombinant expression. The settings on record: FIG. 7, upward pointing triangles.

T1 sequence (O75762 whole entry, species assumed): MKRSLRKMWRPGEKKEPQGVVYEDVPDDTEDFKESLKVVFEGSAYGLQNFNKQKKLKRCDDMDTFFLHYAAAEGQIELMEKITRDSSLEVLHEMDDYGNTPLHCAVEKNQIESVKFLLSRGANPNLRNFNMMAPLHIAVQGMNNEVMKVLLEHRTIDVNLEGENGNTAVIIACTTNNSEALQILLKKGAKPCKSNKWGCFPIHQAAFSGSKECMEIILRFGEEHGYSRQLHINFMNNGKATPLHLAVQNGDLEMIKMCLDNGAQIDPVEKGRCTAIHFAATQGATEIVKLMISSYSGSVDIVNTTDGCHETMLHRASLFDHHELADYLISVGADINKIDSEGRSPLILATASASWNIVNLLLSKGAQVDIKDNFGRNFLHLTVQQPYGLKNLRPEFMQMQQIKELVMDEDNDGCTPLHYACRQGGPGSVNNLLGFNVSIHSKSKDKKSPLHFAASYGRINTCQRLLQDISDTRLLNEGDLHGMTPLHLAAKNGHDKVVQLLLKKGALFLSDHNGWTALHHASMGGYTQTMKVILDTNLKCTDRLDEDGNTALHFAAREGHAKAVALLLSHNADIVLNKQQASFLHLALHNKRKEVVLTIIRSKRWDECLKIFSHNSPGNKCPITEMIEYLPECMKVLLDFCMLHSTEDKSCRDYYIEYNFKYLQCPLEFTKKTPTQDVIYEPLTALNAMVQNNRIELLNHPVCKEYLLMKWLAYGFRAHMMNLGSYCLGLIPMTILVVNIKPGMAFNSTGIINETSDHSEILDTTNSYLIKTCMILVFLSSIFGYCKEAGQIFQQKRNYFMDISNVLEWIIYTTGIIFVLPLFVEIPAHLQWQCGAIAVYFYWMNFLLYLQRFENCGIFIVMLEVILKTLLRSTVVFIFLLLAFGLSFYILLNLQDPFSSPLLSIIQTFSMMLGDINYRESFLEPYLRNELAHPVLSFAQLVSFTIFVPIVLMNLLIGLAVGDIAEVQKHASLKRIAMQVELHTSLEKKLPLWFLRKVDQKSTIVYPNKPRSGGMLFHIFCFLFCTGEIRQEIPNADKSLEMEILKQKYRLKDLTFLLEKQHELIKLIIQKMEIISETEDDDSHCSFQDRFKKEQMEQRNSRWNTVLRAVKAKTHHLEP
Chain of TRPM8 (Q7Z2W7 whole entry): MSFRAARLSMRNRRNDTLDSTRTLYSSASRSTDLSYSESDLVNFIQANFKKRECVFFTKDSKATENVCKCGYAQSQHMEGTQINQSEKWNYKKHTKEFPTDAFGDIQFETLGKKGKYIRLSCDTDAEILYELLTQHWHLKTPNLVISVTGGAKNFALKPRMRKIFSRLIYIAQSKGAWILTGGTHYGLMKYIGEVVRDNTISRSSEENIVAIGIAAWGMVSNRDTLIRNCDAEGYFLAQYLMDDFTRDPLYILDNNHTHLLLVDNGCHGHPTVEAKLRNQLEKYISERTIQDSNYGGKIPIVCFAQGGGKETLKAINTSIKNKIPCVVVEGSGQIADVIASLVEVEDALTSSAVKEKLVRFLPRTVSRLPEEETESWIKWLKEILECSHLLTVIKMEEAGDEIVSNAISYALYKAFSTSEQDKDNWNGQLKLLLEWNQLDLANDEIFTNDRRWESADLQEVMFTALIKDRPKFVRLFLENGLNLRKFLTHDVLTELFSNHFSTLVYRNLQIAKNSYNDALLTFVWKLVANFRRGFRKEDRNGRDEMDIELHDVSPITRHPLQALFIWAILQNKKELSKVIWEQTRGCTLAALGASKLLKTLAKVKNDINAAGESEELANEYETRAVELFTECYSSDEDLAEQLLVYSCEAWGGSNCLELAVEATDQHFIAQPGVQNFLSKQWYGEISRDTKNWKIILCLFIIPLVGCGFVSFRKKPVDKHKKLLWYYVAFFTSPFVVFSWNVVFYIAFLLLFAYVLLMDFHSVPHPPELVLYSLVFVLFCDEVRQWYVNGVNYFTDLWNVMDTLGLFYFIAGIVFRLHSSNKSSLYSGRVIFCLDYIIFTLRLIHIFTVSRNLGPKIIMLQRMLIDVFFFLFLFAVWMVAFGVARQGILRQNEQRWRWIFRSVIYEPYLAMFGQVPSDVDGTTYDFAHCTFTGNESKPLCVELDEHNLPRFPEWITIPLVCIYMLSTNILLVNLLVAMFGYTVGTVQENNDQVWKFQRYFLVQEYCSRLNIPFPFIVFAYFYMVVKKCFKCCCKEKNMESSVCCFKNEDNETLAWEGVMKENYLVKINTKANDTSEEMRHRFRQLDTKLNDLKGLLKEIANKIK
T2 sequence (Q8NER1 whole entry, species assumed): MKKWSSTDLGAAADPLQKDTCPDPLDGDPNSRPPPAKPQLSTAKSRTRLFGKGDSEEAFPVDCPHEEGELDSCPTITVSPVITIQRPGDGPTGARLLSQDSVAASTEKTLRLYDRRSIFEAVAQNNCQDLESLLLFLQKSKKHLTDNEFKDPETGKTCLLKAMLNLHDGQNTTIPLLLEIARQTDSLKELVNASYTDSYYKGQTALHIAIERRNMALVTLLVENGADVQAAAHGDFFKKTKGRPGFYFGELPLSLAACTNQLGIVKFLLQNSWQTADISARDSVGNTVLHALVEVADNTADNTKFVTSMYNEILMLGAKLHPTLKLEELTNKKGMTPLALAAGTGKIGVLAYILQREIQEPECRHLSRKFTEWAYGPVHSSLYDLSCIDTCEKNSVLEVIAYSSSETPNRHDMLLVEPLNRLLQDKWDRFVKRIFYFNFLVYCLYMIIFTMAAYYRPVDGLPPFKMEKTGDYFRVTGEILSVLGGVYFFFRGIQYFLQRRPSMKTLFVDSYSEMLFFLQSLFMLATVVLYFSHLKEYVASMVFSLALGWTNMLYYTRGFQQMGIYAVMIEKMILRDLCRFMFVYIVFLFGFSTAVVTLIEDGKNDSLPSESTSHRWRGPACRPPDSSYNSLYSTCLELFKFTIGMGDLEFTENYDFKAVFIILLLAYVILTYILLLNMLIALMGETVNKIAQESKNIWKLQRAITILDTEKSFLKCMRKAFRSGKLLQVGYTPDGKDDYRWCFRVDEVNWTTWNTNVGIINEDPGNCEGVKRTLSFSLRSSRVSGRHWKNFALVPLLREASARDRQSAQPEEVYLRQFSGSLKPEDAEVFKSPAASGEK

As to `O=CC=Cc1ccccc1` [cinnamaldehyde], the insulin sensitivity entry with mice [1] was “improved insulin sensitivity”. For the same molecule, the “short term food intake” value with mice [2] is given as “reduction in short term food intake”. The body weight gain result in the test with mice [3] is listed as “gained less weight”. For the same molecule, the gastric emptying result with mice [4] was “delayed gastric emptying”. On TRPA1 [5], the EC50 is about 60 µM.

Turning to `COc1ccc(C=O)cc1` [p-anisaldehyde], the EC50 at TRPV1 was about 500 µM; on TRPA1 [6] it was about 100 µM. In addition, the “activation of "empty" cells” value in the test on "empty" cells is recorded as “no activation was observed”. In addition, at TRPM8, the “activation of hTRPM8” value is “no activation was observed”.
